From US12622884B2, “Treatment and prevention of glioblastoma” (CONSEJO SUPERIOR DE INVESTIGACIONES CIENTÍFICAS, priority 2018, dated 2026)
Structures can show the parent of a compound that is named as a salt.

Key:
β2-adrenergic receptor = conditions: reported in the literature; cited from earlier work
[1] = tested on: human glioblastoma cell line U-87; test: U-87 cell viability by luminescence (ATP-Glo kit, Promega); assay type: cell-based
From the text: FIG. 1.—ICI 118,551 is active as an antitumoral agent decreasing cell viability in the glioblastoma cell line and including the stem cell subpopulation. A: U-87 cell line expresses beta-adrenergic receptors type 2, as shown by confocal microscopy using a monoclonal antibody against human β2 adrenergic receptors (Abcam). B: ICI-118551 decreases viability of the human glioblastoma cell line U-87 either when grown in liquid suspension as oncospheres (gliospheres, stem cells) or in adhesion. Viability was quantified by luminescence using the ATP-Glo kit from Promega. C. β2-adrenergic receptor expression in the human glioblastoma cell line U87 was confirmed by mRNA expression by quantitative PCR in 3D cultures as gliospheres (HUVEC as positive control for β2-adrenergic receptor expression).

[2] = tested on: U87 Glioblastoma Cell Line; test: Expression of miR-21 and its targets PDCD4 and PTEN in U87 cells; assay type: cell-based, human; conditions: 48 hours, increasing amounts
Protocol: FIG. 5. […] Furthermore, ICI increases the expression levels of […] targets such as PDCD4-proapoptotic agents1 (middle)—and PTEN—a glioblastoma suppressor (right).
(§1) RNAt was isolated using the Direct-zol RNA MiniPrep Kit (ZymoResearch) from U-87 cells washed with PBS, scraped off the plates and spun down. The pellet was treated with the Tri Reagent and homogenized for 5 min at room temperature before using the MiniPrep Kit as per instructions. The quality and concentration of the RNAt was evaluated by measuring the absorbance at 260, 230 and 280 nm with an ND-1000 spectrophotometer (NanoDrop Technologies, Wilmington, DE, USA). In all cases, the expected 260/280 (˜2.0) and 260/230 (2.0-2.2) ratio values accepted for pure RNA were obtained. To detect the two target miRs, 0.5 μg of the RNAt extracted from the cells was used for hybridization prior to measurement on the dual amperometric platform.
The qScript microRNA Quantification System (Quanta BioSciences, Inc., Gaithersburg, MD, USA) was used to assess miR-21 and miR-205 expression. In brief, cDNA was synthesized using the qScript microRNA cDNA Synthesis Kit, using 10 ng of initial RNA per PCR reaction. The PCR conditions consisted of an initial activation at 50° C. for 2 min, followed by 40 cycles of 95° C. for 5 s, and 60° C. for 30 s in LightCycler 480 Real-Time PCR System (Roche). The Ct (threshold cycle) value for each primer was normalized to that of RNU6. To assess gene expression, cDNA was synthesized with the transcriptor first strand cDNA synthesis Kit (Roche) under the following PCR conditions: 40 amplification cycles of 95° C. for 10 seconds, 60° C. for 30 seconds and 72° C. for 30 seconds. […] The expression level of each gene was determined by the relative standard curve method and the primer sequences for target genes were obtained from the Universal ProbeLibrary Assay Design Center. […]

U-87 stem cells = test: Extreme limited dilution assay (ELDA) for oncosphere formation; assay type: cell-based, human; conditions: different concentrations; spheres quantified at 14 days
Protocol: (§2) A: photographs of gliospheres formation after 72 hours of drug treatment. U-87 cells were cultured in medium for gliosphere formation, and either treated with vehicle (control, on the left), or with ICI 118,551, and propranolol at different concentrations from 10 to 100 μM. […] B: Limit dilution assay experiment (ELDA) for oncosphere formation in the presence of different concentrations of ICI 118,551 and propranolol.
(§3) Following the protocol described elsewhere (Diaz-Guerra, E.; Lillo, M. A.; Santamaria, S.; Garcia-Sanz, J. A., Intrinsic cues and hormones control mouse mammary epithelial tree size. FASEB J 2012, 26 (9), 3844-53). Cells were detached from the plate with trypsin (Invitrogen) and plated in complete medium (DMEM/F-12 medium with GlutaMAX) supplemented with B27 (Gibco), 10 ng/ml epidermal growth factor (EGF: Invitrogen) and 10 ng/ml basic fibroblast growth factor (bFGF: Millipore) and they were maintained at 37° C. in 5% CO2. For the ELDA assay cells were dissociated to single cells with trypsin, and seeded at different dilutions (from 100 to 10 for U-87 cells) in sphere complete media following procedures described in Ponti, D et al., (Cancer Res 2005, 65 (13), 5506-11.). The final number of spheres was quantified at 14 days, and the final data and statistical significance was obtained with ELDA software (Hu, Y. et al J Immunol Methods 2009, 347 (1-2), 70-8). […]

U-87 gliospheres = test: Gliosphere formation of U-87 cells under drug treatment; assay type: cell-based, human; conditions: 10 to 100 μM; 72 hours of drug treatment
Protocol: as §2, §3

U-87 xenografts = test: Xenograft of U-87 adherent cells in NSG mice; assay type: in vivo; conditions: intraperitoneal; for decrease in the tumor volume: 10 mg/Kg body daily, from tumor volume around 100 mm^3, versus vehicle; for adverse effects: 10 mg/Kg body weight daily, NSG mice
Protocol: (§4) FIG. 4.—ICI 118,551 and Propranolol delay the tumor progression of U-87 xenografts in NSG immunodeppressed mice. A Xenograft using U-87 adherent cells: Mice (n=30) were inoculated with 10^6 cells of U-87 glioblastoma cell line, in the flank, as xenografts. Tumor volume was measured every 3 days. In A, when tumors reached around 100 mm^3 volume, mice were divided in 3 groups (n=9-10). One group was treated daily with 10 mg/Kg body weight with propranolol, another group with the same dose of ICI118,551, and the third group only with vehicle (DMSO). Drugs were intraperitoneally injected. […] B Xenograft using U-87 gliospheres: Mice were inoculated with 10^5 spheroids from the glioblastoma cell line U-87. Mice were divided in 3 groups of 9-10 animals and treated immediately after xenograft for 5 consecutive days with either 3 mg/Kg body weight of propranolol, or ICI 118,551, or only vehicle. The tumors were measured from the moment they were big enough to be sized.
Male 7-8 weeks old NOD scid gamma (NSG) mice were injected in the dorsal flank with a total of either 10^6 cells of U-87 cell line (A), or with 10^5 cells coming from disaggregated gliospheres (B). In the case of A, when tumor size reached 100 mm^3 volume, mice were divided at random in 3 groups, of 9/10 mice each. One group was treated with intraperitoneal daily injection of 10 mg/Kg body of propranolol, other group with the same amount of ICI118,551, and finally, a control group was injected with vehicle. Tumor size was measured by a caliper every 2-3 days. Mice were sacrificed when tumor volume average of the control group reached an end point established on our ethical procedures.
Xenografts were made using U-87 adherent cells: Mice (n=30) were inoculated with 10^6 cells of U-87 glioblastoma cell line, in the flank, as xenografts. Tumor volume was measured every 3 days. When tumors reached around 100 mm^3 volume, mice were divided in 3 groups (n=9-10). One group was treated daily with 10 mg/Kg body weight with propranolol, another group with the same dose of ICI118,551, and the third group only with vehicle (DMSO). Drugs were intraperitoneally injected.

[3] = tested on: U-87 glioblastoma cell line; test: RT-qPCR of stemness and neural differentiation marker mRNAs in U-87; assay type: cell-based, human; conditions: 48 hours; mRNA by RT-qPCR; dose-dependent
Protocol: FIG. 3.—ICI 118,551 and propranolol decreased stemness biomarker expression in U-87 glioblastoma cell line, but increased the neural differentiation markers. A: The treatment of U-87 with ICI-118,551 and propranolol during 48 hours decreases the expression of stemness associated genes as GD3 synthase, ALDH1, Prominin (CD133), Sox2 and Nanog, whereas B: favors the expression of genes involved in neural cell differentiation (MAP2, GFAP and Nestin). Expression of the corresponding mRNAs was measured by RT-qPCR.
as §1
The qScript microRNA Quantification System (Quanta BioSciences, Inc., Gaithersburg, MD, USA) was used to assess miR-21 and miR-205 expression. In brief, cDNA was synthesized using the qScript microRNA cDNA Synthesis Kit, using 10 ng of initial RNA per PCR reaction. The PCR conditions consisted of an initial activation at 50° C. for 2 min, followed by 40 cycles of 95° C. for 5 s, and 60° C. for 30 s in LightCycler 480 Real-Time PCR System (Roche). The Ct (threshold cycle) value for each primer was normalized to that of RNU6. To assess gene expression, cDNA was synthesized with the transcriptor first strand cDNA synthesis Kit (Roche) under the following PCR conditions: 40 amplification cycles of 95° C. for 10 seconds, 60° C. for 30 seconds and 72° C. for 30 seconds. ACTB was used as a reference gene for normalization and the real-time PCR reactions were performed in triplicate using the PerfeCTa SYBR Green SuperMix (Quanta BioSciences) for miRNAs and the FastStart Universal SYBR Green Master (Roche) for gene expression. The expression level of each gene was determined by the relative standard curve method and the primer sequences for target genes were obtained from the Universal ProbeLibrary Assay Design Center.
However, mRNA from genes involved in neural cell differentiation, such as MAP2, GFAP and nestin (FIG. 3B), were increased in their expression (FIG. 3B). The expression of the corresponding mRNAs was measured by RT-qPCR.

[4] = tested on: U-87 gliospheres xenografts; test: Xenograft of U-87 gliospheres in NSG mice; assay type: in vivo; conditions: 3 mg/Kg body weight, 5 consecutive days immediately after xenograft, intraperitoneal
Protocol: as §4, with “Mice were divided in 3 groups of 9-10 animals and treated immediately after xenograft for 5 consecutive days with either 3 mg/Kg body weight of propranolol, or ICI 118,551, or only vehicle.” left out
In the case of B, mice were divided in 3 groups of 10 mice, and were treated the first 5 days after xenograft establishment with intraperitoneal injection of propranolol, or ICI118,551 at 3 mg/Kg body, or vehicle. […] From this moment on, tumor size was measured every 2-3 days along 4 weeks, and then the mice were sacrificed.
On the other hand, xenografts using U-87 gliospheres were also used. […] The tumors were measured from the moment they were big enough to be sized.

SMILES	β2/β1 selectivity ratio (β2-adrenergic receptor)	differential sensitivity to the drug, adhesion versus 3D gliospheres ([1]; 2D cells in adhesion compared with 3D gliospheres in suspension)	viability of the cancer stem cells ([1]; 3D gliospheres, low μM concentrations)	viability of U-87 ([1]; different doses, grown in liquid suspension as oncospheres (gliospheres) or in adhesion, ATP-Glo luminescence)	expression level of PDCD4 [2]	expression level of PTEN [2]	mRNA-21 expression ([2]; compared with Propranolol)	ELDA dilution factor compared to control (U-87 stem cells)	inhibition of gliosphere formation (U-87 gliospheres)	decrease in the tumor volume (U-87 xenografts)	adverse effects (U-87 xenografts)	expression of neural cell differentiation genes MAP2, GFAP and nestin [3]	expression of stemness associated genes GD3 synthase, ALDH1, prominin (CD 133), Sox2 and nanog [3]	rate of tumor growth versus vehicle treated mice [4]
COc1ccc(OC)c(C(O)C(C)NC(C)(C)C)c1 (racemic) [Butoxamine, DL-erythro-α-(2,5-dimethoxyphenyl)-β-t-butyl aminopropanol hydrochloride]	at least 17	–	–	–	–	–	–	–	–	–	–	–	–	–
Cc1ccc(OCC(O)C(C)NC(C)C)c2c1CCC2 [ICI 118,551, erythro-D,L-1(methylinden-4-yloxy)-3-isopropylaminobutan-2-ol]	at least 123	more sensitive the cells grown in adhesion than the 3D gliospheres	strongly affects the viability	decreased the viability	increases	increases	notably decreased	increases	dose-dependent inhibition	around 30%	no adverse effects observed	increased	decreased significantly	significant delay
CC(C)NCC(O)COc1cccc2ccccc12 (stereo not shown) [propranolol]	–	–	–	–	–	–	–	increases	dose-dependent inhibition	around 30%	no adverse effects observed	increased	decreased significantly	significant delay
